Like-named read-outs stand apart in the source and are kept apart here.
Assays:
[1] = test system: advanced solid tumors; test: Antitumor activity: best overall response / unconfirmed objective response by investigator assessment; format: in vivo, human
Experimental: Tumor assessments were performed on Day 29 and every 8 weeks thereafter for the initial 12 cycles, regardless of any dose interruptions or dose delays, and then performed per local standard practice after completion of Cycle 12. […] Unconfirmed objective response by investigator assessment was defined as a complete (disappearance of all target lesions) or partial (at least 30% decrease in the sum of diameters of target lesions) response recorded from Cycle 1 Day 1 until disease progression, start of subsequent anticancer therapy, or death due to any cause. Given the exploratory nature of the efficacy endpoint, confirmation of response was not required. Duration of response, calculated as the time from first documentation of complete response or partial response to date of first documentation of objective progression or death, was only calculated for the subgroup of patients with an unconfirmed objective response. All patients who had received at least 1 dose of talazoparib were included in the safety and efficacy analysis sets. All treated patients with at least 1 PK concentration in the single-dose and/or multiple-dose PK part were included in the PK concentration analysis set, and all treated patients with at least 1 of the PK parameters of primary interest in the single-dose and/or multiple-dose PK part were included in the PK parameter analysis set. All patients in the PK parameter analysis set who completed both the single-dose PK and multiple-dose PK parts without major protocol deviations were included in the PK evaluable analysis set.

[2] = set-up: method as in PMID 34388386; conditions: cited from earlier work
[3] = clinical; conditions: human, in vivo, po, 1 mg
Experimental: A single dose of talazoparib 1 mg was administered orally on Day –9. From Cycle 1 Day 1, patients received talazoparib 1 mg QD orally on a continuous basis at approximately the same time each day (preferably in the morning) until disease progression, death, unacceptable toxicity, or withdrawal of consent. Dose interruptions or reductions were not required unless toxicity persisted at grade 2 for ≥7 days. Daily dosing was paused for grade ≥3 hematologic toxicities. Supportive care including blood products was allowed as appropriate per local guidance. To minimize any drug-drug interaction effects relating to talazoparib exposure and potential alteration to efficacy, co-medication with P-glycoprotein (P-gp) inhibitors and inducers was prohibited for Cycle 1 when intensive PK assessments were scheduled after both single-dose and multiple-dose talazoparib administrations. After Cycle 1, only potent P-gp inhibitors were prohibited to accommodate more co-medication options.
To assess the single-dose PK profile, patients took talazoparib on Day –9 of a 9-day (216 h) lead-in period; blood samples were collected at pre-dose and at 0.5, 1, 2, 4, 8, 24, 48, 96, 168, and 216 h post-dose. For the steady-state PK profile, serial samples after multiple doses of talazoparib were collected on Day 22 of the first cycle at pre-dose and at 0.5, 1, 2, 4, 8, and 24 h post-dose. Prior to serial PK sampling (Cycle 1 Day –9, Cycle 1 Day 22), patients were required to fast for at least 8 h before dosing and they had to continue fasting for 2 h after dosing to control the variability due to food effect on Cmax. For the other PK sampling points, talazoparib could have been taken with or without food. On clinic visit days, talazoparib was administered after completion of a pre-dose blood sampling for PK and assessments. Blood samples of approximately 3 mL, to provide a minimum of 1.5 mL plasma, for measurement of talazoparib concentrations were collected.
Talazoparib PK parameters were calculated for each patient and each treatment, as applicable, using non-compartmental analysis of concentration-time data. Summary statistics were calculated by setting concentration values below the lower limit of quantification to zero.

[4] = cited from earlier work; for Tmax: median (range)
[5] = set-up: method as in PMID 35907135; conditions: 19 Japanese patients with germline BRCA-mutated advanced breast cancer; cited from earlier work
[6] = Western and Japanese patients; cited from earlier work
[7] = test system: solid tumors; set-up: method as in PMID 34160752; conditions: molecularly unselected Japanese patients with solid tumors; cited from earlier work
[8] = set-up: method as in PMID 30110579; conditions: EMBRACA, cited from earlier work
[9] = set-up: method as in PMID 31489639; conditions: population PK model, 490 patients, cited from earlier work
[10] = set-up: method as in PMID 35907135; conditions: Japanese patients, cited from earlier work
[11] = test system: advanced breast cancer and a germline BRCA alteration; set-up: method as in PMID 30110579; conditions: EMBRACA, cited from earlier work
[12] = 11 patients with measurable disease at baseline
[13] = patients with measurable disease N=11
[14] = multiple dosing 1 mg QD oral, ref de Bono et al 2017
[15] = single dosing 1 mg oral, ref de Bono et al 2017

Structure (SMILES): Cn1ncnc1[C@H]1c2n[nH]c(=O)c3cc(F)cc(c23)N[C@@H]1c1ccc(F)cc1 [talazoparib]
- Patients progressed by data cut-off [1, 12]: 54.5%
- Patients with stable disease [1, 12]: 36.4%
- ORR (best overall response of partial response) ([1]; 11 patients with measurable disease at baseline, 95% CI 0.2–41.3): 9.1%
- Patients with non-complete response/non-progressive disease ([1]; 15 treated patients): 6.7%
- Patients with partial response ([1]; 15 treated patients): 6.7%
- Patients with stable disease ([1]; 15 treated patients): 26.7%
- Unconfirmed objective response rate (investigator-assessed) ([1]; 15 treated patients, 95% CI 0.2–31.9): 6.7%
- Disease control based on best overall response ([1]; 15 treated patients, 95% CI 16.3–67.7): 40.0%
- Disease control rate ([1]; 95% CI 16.7–76.6): 45.5%
- Best overall response: Complete response ([1]; efficacy analysis set N=15): 0 n (%)
- Best overall response: Non-complete response/non-progressive disease ([1]; efficacy analysis set N=15): 1 (6.7) n (%)
- Best overall response: Not evaluable ([1]; efficacy analysis set N=15): 2 (13.3) n (%)
- Best overall response: Partial response ([1]; efficacy analysis set N=15): 1 (6.7) n (%)
- Best overall response: Progressive disease ([1]; efficacy analysis set N=15): 7 (46.7) n (%)
- Best overall response: Stable disease ([1]; efficacy analysis set N=15): 4 (26.7) n (%)
- Disease control ([1]; efficacy analysis set N=15, CR, PR, SD and non-CR/non-PD): 6 (40.0 [16.3–67.7]) n (%, [95% CI])
- Objective response ([1]; efficacy analysis set N=15, complete and partial responses, Clopper-Pearson CI): 1 (6.7 [0.2–31.9]) n (%, [95% CI])
- Best overall response: Complete response [1, 13]: 0 n (%)
- Best overall response: Non-complete response/non-progressive disease [1, 13]: 0 n (%)
- Best overall response: Not evaluable [1, 13]: 0 n (%)
- Best overall response: Partial response [1, 13]: 1 (9.1) n (%)
- Best overall response: Progressive disease [1, 13]: 6 (54.5) n (%)
- Best overall response: Stable disease [1, 13]: 4 (36.4) n (%)
- Disease control [1, 13]: 5 (45.5 [16.7–76.6]) n (%, [95% CI])
- Duration of response ([1]; the one responder, measurable disease at baseline): 114 days
- Grade 3–4 TEAE: neutropenia ([2]; TALAPRO-1, 10/127): 8%
- Grade 3–4 TEAE: thrombocytopenia ([2]; TALAPRO-1, 11/127): 9%
- Grade 3–4 TEAE: anemia ([2]; TALAPRO-1, 39/127): 31%
- AUC [3]: 86.5 ng·h/mL
- AUC(0-inf) [3]: 208 ng·h/mL
- AUC(0-t) [3]: 172 ng·h/mL
- Cmax [3]: 8.51 ng/mL
- Tmax [3]: 1.9 h
- Vd/F [3]: 457 L
- half-life [3]: 67 ± 11.8 h
- Median time to Cmax ([4]; Western patients with advanced cancers): ≤ 2 h
- Mean accumulation ratio at steady state ([4]; Western patients): 2.4 fold
- t1/2 (plasma elimination, biphasic kinetics) ([4]; Western patients): approximately 2 days
- Cmax ([4]; multiple dosing 1 mg QD oral, N=6, ref de Bono et al 2017): 21.0 (7.99) ng/mL
- Tmax [4, 14]: 1.02 (0.75–2.00) h
- CL/F [4, 14]: 5.24 (1.39) L/h
- Cmax ([4]; single dosing 1 mg oral, N=5, US/UK sites, ref de Bono et al 2017): 10.6 (4.22) ng/mL
- t1/2 ([4]; single dosing 1 mg oral, arithmetic mean ± standard deviation, ref de Bono et al 2017): 52.9 ± 13.4 h
- VZ/F ([4]; single dosing 1 mg oral, column uncertain, ref de Bono et al 2017): 415 (170) L
- Tmax [4, 15]: 1.03 (0.73–2.07) h
- CL/F [4, 15]: 5.39 (1.59) L/h
- Geometric mean Ctrough (steady-state trough concentrations) [5]: 3.346 ng/mL
- Maximum tolerated dose of monotherapy [6]: 1 mg QD
- Overall disease control rate [7]: 44.4%
- Grade 3–4 TEAE: thrombocytopenia ([8]; 42/286): 15%
- Grade 3–4 TEAE: neutropenia ([8]; 60/286): 21%
- Grade 3–4 TEAE: anemia ([8]; 112/286): 39%
- Apparent volume of distribution of the central compartment ([9]; 4.79% interpatient variability): 162 L
- Mean apparent oral clearance ([9]; 27.0% interpatient variability): 6.36 L/h
- Patients with grade 3–4 treatment-related AEs ([10]; 10/19): 52.6%
- Treatment-related AE: anemia ([10]; 13/19): 68.4%
- Grade 5 AEs [10]: no grade 5 AEs
- Patients with treatment-related AEs [10]: all patients experienced treatment-related AEs
- Hazard ratio for disease progression or death ([11]; versus standard chemotherapy, 95% CI 0.41–0.71, P < 0.001): 0.54
- Median progression-free survival ([11]; vs 5.6 months standard chemotherapy): 8.6 months

Source: article PMC10290043, “Pharmacokinetics, safety, and antitumor activity of talazoparib monotherapy in Chinese patients with advanced solid tumors” (Investigational New Drugs, 2023)
